Measured values: patent US20040248887A1, “Inhibitors of cathepsin S” (IRM LLC, priority 2003, published 2004)

Target: Cathepsin S (Homo sapiens, UniProt P25774)
Assay: Cathepsin S inhibition, fluorogenic peptide substrate kinetic assay
Assay type: biochemical
Settings: Table II; Cathepsin S inhibition constant, pH5.5; read-out: Ki Cat. S
How it was run: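 Reactions were started with 50 μM (final) acetyl-His-Pro-Val-Lys-aminocarbamoylcoumarin, and hydrolysis was followed by fluorescence (ex 380/em 450 nm). Apparent inhibition constants from enzyme progress curves were converted to Ki for competitive inhibitors using substrate concentration and Km.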

Cathepsin S, sequence (P25774 115-331, species assumed): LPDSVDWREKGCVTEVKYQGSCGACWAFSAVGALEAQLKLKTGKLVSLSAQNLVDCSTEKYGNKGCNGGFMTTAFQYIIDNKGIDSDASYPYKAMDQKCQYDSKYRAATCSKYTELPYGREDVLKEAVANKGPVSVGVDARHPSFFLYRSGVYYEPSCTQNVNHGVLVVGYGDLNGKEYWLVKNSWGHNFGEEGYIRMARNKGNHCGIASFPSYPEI

Ki, < 100 nM:
C[C@@H](CNc1ccc(OC(F)F)cc1)NC(=O)[C@H](CC1CCCCC1)NC(=O)c1ccc(-c2cccc(F)c2)o1 [Compound 84, 5-(3-Fluoro-phenyl)-furan-2-carboxylic acid {2-cyclohexyl-1-(S)-[2-(4-difluoromethoxy-phenylamino)-1-(S)-methyl-ethylcarbamoyl]-ethyl}-amide]
COc1c(C)cc(NC[C@H](C)NC(=O)[C@H](CC2CCCCC2)NC(=O)c2ccc(-c3cccc(F)c3)o2)cc1C [Compound 115, 5-(3-Fluoro-phenyl)-furan-2-carboxylic acid {2-cyclohexyl-1-(S)-[2-(4-methoxy-3,5-dimethyl-phenylamino)-1-(S)-methyl-ethylcarbamoyl]-ethyl}-amide]
C[C@@H](CN1CC(C)(C)c2cc(F)ccc21)NC(=O)[C@H](CC1CCCCC1)NC(=O)O[C@@H]1CCOC1 [Compound 216, {2-Cyclohexyl-1-(S)-[2-(5-fluoro-3,3-dimethyl-2,3-dihydro-indol-1-yl)-1-(S)-methyl-ethylcarbamoyl]-ethyl}-carbamic acid (R)-tetrahydrofaran-3-yl ester]
COc1cccc(C(=O)N[C@@H](CC(C)(C)C)C(=O)N[C@@H](CO)CN2CCc3cc(F)ccc32)c1 [Compound 156, N-{1-(S)-[2-(5-Fluoro-2,3-dihydro-indol-1-yl)-1-(R)-hydroxymethyl-ethylcarbamoyl]-3,3-dimethyl-butyl}-3-methoxy-benzamide]
O=C(N[C@@H](CC1CCCCC1)C(=O)N[C@@H](CO)CN1CCc2cc(F)ccc21)c1ccc(-c2cccc(C(F)(F)F)c2)o1 [Compound 153, 5-(3-Trifluoromethyl-phenyl)-furan-2-carboxylic acid {2-cyclohexyl-1-(S)-[2-(5-fluoro-2,3-dihydro-indol-1-yl)-1-(R)-hydroxymethyl-ethylcarbamoyl]-ethyl}-amide]
C[C@@H](CNc1ccc(OC(F)(F)F)cc1)NC(=O)[C@H](CC1CCCCC1)NC(=O)c1nnc(-c2cccc(F)c2)o1 [Compound 147, 5-(3-Fluoro-phenyl)-[1,3,4]oxadiazole-2-carboxylic acid {2-cyclohexyl-1-(S)-[1-(S)-methyl-2-(4-trifluoromethoxy-phenylamino)-ethylcarbamoyl]-ethyl}-amide]
C[C@@H](CNc1ccccc1F)NC(=O)[C@H](CC1CCCCC1)NC(=O)c1ccc(-c2cccc(F)c2)o1 [Compound 95, 5-(3-Fluoro-phenyl)-furan-2-carboxylic acid {2-cyclohexyl-1-(S)-[2-(2-fluoro-phenylamino)-1-(S)-methyl-ethylcarbamoyl]-ethyl}-amide]
C[C@@H](CNc1ccc(OC(F)(F)F)cc1)NC(=O)[C@H](CC1CCCCC1)NC(=O)O[C@H]1CCOC1 [Compound 189, {2-Cyclohexyl-1-(S)-[1-(S)-methyl-2-(4-trifluoromethoxy-phenylamino)-ethylcarbamoyl]-ethyl}-carbamic acid tetrahydrofuran-3-(S)-yl ester]
O=C(N[C@@H](CC1CCCCC1)C(=O)NCCN1CCc2cc(F)ccc21)c1csc(-c2ccccc2)n1 [Compound 76, 2-Phenyl-thiazole-4-carboxylic acid (S)-{2-cyclohexyl-1-[2-(5-fluoro-2,3-dihydro-indol-1-yl)-ethylcarbamoyl]-ethyl}-amide]
C[C@@H](CNc1ccc(OC(F)(F)F)cc1)NC(=O)[C@H](CC1CCCCC1)NC(=O)OC1CCOCC1 [Compound 184, (S,S)-{2-Cyclohexyl-1-[1-methyl-2-(4-trifluoromethoxy-phenylamino)-ethylcarbamoyl]-ethyl}-carbamic acid tetrahydro-pyran-4-yl ester]
C[C@@H](CNc1cccc(F)c1F)NC(=O)[C@H](CC1CCCCC1)NC(=O)c1ccc(-c2cccc(F)c2)o1 [Compound 90, 5-(3-Fluoro-phenyl)-furan-2-carboxylic acid {2-cyclohexyl-1-(S)-[2-(2,3-difluoro-phenylamino)-1-(S)-methyl-ethylcarbamoyl]-ethyl}-amide]
COc1cccc(C(=O)N[C@@H](CC2CCCCC2)C(=O)N[C@@H](CC(=O)O)CN2CCc3cc(F)ccc32)c1 [Compound 162, 3-(S)-[3-Cyclohexyl-2-(S)-(3-methoxy-benzoylamino)-propionylamino]-4-(5-fluoro-2,3-dihydro-indol-1-yl)-butyric acid]
CNS(=O)(=O)c1ccc(NC[C@H](C)NC(=O)[C@H](CC2CCCCC2)NC(=O)c2ccc(-c3cccc(F)c3)o2)cc1 [Compound 118, 5-(3-Fluoro-phenyl)-furan-2-carboxylic acid {2-cyclohexyl-1-(S)-[1-(S)-methyl-2-(4-methylsulfamoyl-phenylamino)-ethylcarbamoyl]-ethyl}-amide]
C[C@@H](CNc1ccc(OC(F)(F)F)cc1)NC(=O)[C@H](CC1CCCCC1)NC(=O)c1ccc(-c2cccc(F)c2)o1 [Compound 83, 5-(3-Fluoro-phenyl)-furan-2-carboxylic acid {2-cyclohexyl-1-(S)-[1-(S)-methyl-2-(4-trifluoromethoxy-phenylamino)-ethylcarbamoyl]-ethyl}-amide]
Cc1cccc(C(=O)N[C@@H](CC(C)C)C(=O)N[C@@H](CCC(N)=O)CN2CCc3cc(F)ccc32)c1 [Compound 44, (S,S)-N-{1-[3-Carbamoyl-1-(5-fluoro-2,3-dihydro-indol-1-ylmethyl)-propylcarbamoyl]-3-methyl-butyl}-3-methyl-benzamide]
C[C@@H](CNc1ccc(OC(F)(F)F)cc1)NC(=O)[C@H](CC1CCCCC1)NC(=O)[C@@H]1CCCO1 [Compound 29, Tetrahydrofuran-2-(S)-carboxylic acid {2-cyclohexyl-1-(S)-[1-(S)-methyl-2-(4-trifluoromethoxy-phenylamino)-ethylcarbamoyl]-ethyl}-amide]
COc1ccc(Oc2ccc(S(=O)(=O)N[C@@H](CC3CCCCC3)C(=O)NCCN3CCc4cc(F)ccc43)cc2)cc1 [Compound 244, (S)-3-Cyclohexyl-N-[2-(5-fluoro-2,3-dihydro-indol-1-yl)-ethyl]-2-[4-(4-methoxy-phenoxy)-benzenesulfonylamino]-propionamide]
COc1ccc(-c2ccc(S(=O)(=O)N[C@@H](CC3CCCCC3)C(=O)NCCN3CCc4cc(F)ccc43)cc2)cc1 [Compound 238, (S)-3-Cyclohexyl-N-[2-(5-fluoro-2,3-dihydro-indol-1-yl)-ethyl]-2-(4′-methoxy-biphenyl-4-sulfonylamino)-propionamide]
O=C(C[C@@H](CN1CCc2cc(F)ccc21)NC(=O)[C@H](CC1CCCCC1)NC(=O)OCc1ccccc1)OCc1ccccc1 [Compound 168, 3-(S)-(2-(S)-Benzyloxycarbonylamino-3-cyclohexyl-propionylamino)-4-(5-fluoro-2,3-dihydro-indol-1-yl)-butyric acid benzyl ester]

Ki, < 10000 nM:
C[C@@H](CNc1ccc(OC(F)(F)F)cc1)NC(=O)[C@H](CC(C)(C)C)NC(=O)[C@H]1CCCO1 [Compound 268, Tetrahydrofuran-2-(R)-carboxylic acid {3,3-dimethyl-1-(S)-[1-(S)-methyl-2-(4-trifluoromethoxy-phenylamino)-ethylcarbamoyl]-butyl}-amide]

Ki, < 1000 nM:
CS(=O)(=O)N1CCC(Oc2ccc(C(=O)N[C@@H](CC3CCCCC3)C(=O)NCCN3CCc4cc(F)ccc43)cc2)CC1 [Compound 68, N-(S)-{2-cyclohexyl-1-[2-(5-fluoro-2,3-dihydro-indol-1-yl)-ethylcarbamoyl]-ethyl}-4-(1-methanesulfonyl-piperidin-4-yloxy)-benzamide]
O=C(N[C@@H](CC1CCCCC1)C(=O)NCCN1CCc2cc(F)ccc21)c1ccc(OC2CCNCC2)cc1 [Compound 67, N-(S)-{2-cyclohexyl-1-[2-(5-fluoro-2,3-dihydro-indol-1-yl)-ethylcarbamoyl]-ethyl}-4-(piperidin-4-yloxy)-benzamide]
C[C@@H](CN1CCc2cc(F)ccc21)NC(=O)[C@H](CC(C)(C)C)NC(=O)Cc1nnn[nH]1 [Compound 179, 4,4-Dimethyl-2-(S)-(2-1H-tetrazol-5-yl-acetylamino)-pentanoic acid [2-(5-fluoro-2,3-dihydro-indol-1-yl)-1-(S)-methyl-ethyl]-amide]
C[C@@H](CNc1ccc(C(=N)N)cc1)NC(=O)C(NC(=O)c1ccc(OCc2ccccc2)cc1)c1ccc(Cl)cc1Cl (mixture of isomers) [Compound 175, 4-Benzyloxy-N-(R,S)-{[2-(4-amidinophenylamino)-1-(S)-methyl-ethylcarbamoyl]-(2,4-dichloro-phenyl)-methyl}-benzamide]
C[C@@H](CN1CC(C)(C)c2cc(F)ccc21)NC(=O)[C@H](CC(C)(C)C)NC(=O)C1CCOCC1 [Compound 270, Tetrahydro-pyran-4-carboxylic acid {1-(S)-[2-(5-fluoro-3,3-dimethyl-2,3-dihydro-indol-1-yl)-1-(S)-methyl-ethylcarbamoyl]-3,3-dimethyl-butyl}-amide]
Cc1cccc(C(=O)N[C@@H](Cc2ccccc2Cl)C(=O)NCCN2CCc3cc(F)ccc32)c1 [Compound 195, N-((S)-1-(2-(5-fluoroindolin-1-yl)ethylcarbamoyl)-2-(2-chlorophenyl)ethyl)-3-methylbenzamide]
O=C(N[C@@H](Cc1cccc(Cl)c1)C(=O)NCCN1CCc2cc(F)ccc21)c1ccc(-c2cccc(C(F)(F)F)c2)o1 [Compound 196, N-((S)-1-(2-(5-fluoroindolin-1-yl)ethylcarbamoyl)-2-(3-chlorophenyl)ethyl)-5-(3-(trifluoromethyl)phenyl)furan-2-carboxamide]
O=C(NCCN1CCc2cc(F)ccc21)[C@H](CC1CCCCC1)NS(=O)(=O)c1ccc(S(=O)(=O)c2ccccc2)s1 [Compound 256, (S)-2-(5-Benzenesulfonyl-thiophene-2-sulfonylamino)-3-cyclohexyl-N-[2-(5-fluoro-2,3-dihydro-indol-1-yl)-ethyl]-propionamide]
